{
  "source": "paper PMC13172357",
  "about": "(Nature Communications, 2026)",
  "type_in_all_cases": "cell-based",
  "key": {"USP7 [1]": {"molecular_target": "T1, USP7 (Homo sapiens, UniProt Q93009)", "T1 construct": "allowed the analysis of endogenous USP7 degradation in both cell lines; endogenous in cells; host or cells: Panc89 (PDAC) and Ma-Mel-47 (melanoma) cells", "T1 sequence (Q93009 whole entry)": "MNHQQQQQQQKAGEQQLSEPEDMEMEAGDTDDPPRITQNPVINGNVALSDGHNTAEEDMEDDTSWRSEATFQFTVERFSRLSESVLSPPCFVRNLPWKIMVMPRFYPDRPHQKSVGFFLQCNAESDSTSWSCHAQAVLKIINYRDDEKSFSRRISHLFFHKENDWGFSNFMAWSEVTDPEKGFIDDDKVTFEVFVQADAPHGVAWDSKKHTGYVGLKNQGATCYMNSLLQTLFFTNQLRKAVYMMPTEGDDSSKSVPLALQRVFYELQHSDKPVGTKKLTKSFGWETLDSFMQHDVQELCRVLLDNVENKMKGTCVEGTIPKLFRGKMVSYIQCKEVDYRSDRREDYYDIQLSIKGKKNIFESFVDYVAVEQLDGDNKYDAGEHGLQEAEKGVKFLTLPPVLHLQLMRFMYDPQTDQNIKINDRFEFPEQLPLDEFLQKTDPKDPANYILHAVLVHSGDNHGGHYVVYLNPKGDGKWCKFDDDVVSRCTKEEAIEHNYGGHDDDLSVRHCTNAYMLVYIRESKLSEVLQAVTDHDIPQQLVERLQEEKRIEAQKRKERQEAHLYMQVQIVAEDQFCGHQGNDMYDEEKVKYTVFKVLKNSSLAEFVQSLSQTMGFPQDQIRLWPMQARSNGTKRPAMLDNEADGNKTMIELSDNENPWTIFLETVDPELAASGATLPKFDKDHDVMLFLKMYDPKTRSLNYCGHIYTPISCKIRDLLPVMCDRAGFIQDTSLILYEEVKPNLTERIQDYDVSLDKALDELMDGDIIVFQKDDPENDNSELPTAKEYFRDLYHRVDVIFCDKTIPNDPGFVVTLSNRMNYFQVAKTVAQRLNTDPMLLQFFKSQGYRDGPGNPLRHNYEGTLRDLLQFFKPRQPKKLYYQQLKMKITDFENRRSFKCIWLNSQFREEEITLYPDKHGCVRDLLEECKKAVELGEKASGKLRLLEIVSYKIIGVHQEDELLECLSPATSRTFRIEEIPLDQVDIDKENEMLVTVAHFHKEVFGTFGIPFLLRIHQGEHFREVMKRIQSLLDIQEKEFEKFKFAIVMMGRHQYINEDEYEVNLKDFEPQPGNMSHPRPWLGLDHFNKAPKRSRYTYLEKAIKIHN", "assay": "USP7 degradation, Western blot densitometry, Ma-Mel-47 cells", "settings": "for USP7 degradation (in words): 24 h; for DC50: read-out: DC50 (half-maximal degradation concentration); for USP7 levels in time course (in words): over 24 h", "procedure": "(§1) The melanoma cell line Ma-Mel-47 (established previously[57] from metastatic lesions from patient tumor tissues after written informed consent) and the PDAC cell line Panc89 (RRID: CVCL_4056, also referenced as T3M-4[58]) were cultured in a humidified incubator with 5% CO2 at 37 °C in RPMI1640 (Ma-Mel-47) / DMEM (Panc89) medium containing 10% (v/v) fetal calf serum (FCS) and penicillin/streptomycin (all Gibco, Thermo Fisher Scientific). Studies on human material were approved by the institutional review board. […] Testing for mycoplasma was performed by PCR monthly. To confirm cell identity, STR analysis was performed by the Microsynth Seqlab GmbH.\n(§2) To prepare samples for Western blot analysis, cells were seeded in 6-well dishes the day before treatment to adhere at 70–80% confluency.\n(§3) Cell pellets of all PDAC samples were lysed via adding a buffer containing 150 mM NaCl, 50 mM Tris/HCl (pH 7.4), 1% Triton X-100, 10 mM EDTA, 1 mM PMSF, 10 mM orthovanadate, and 1% aprotinin, incubating on ice for 1 h with vortexing every 15 minutes. Lysates were cleared of cell debris by centrifugation at 10,000 ×g at 4 °C for 10 min. […] Lysates were then clarified of cell debris by centrifugation at 13,000 ×g at 4 °C for 15 min. Thereafter, the total protein concentrations were either determined immediately or the protein extracts were stored at −20 or −80 °C. Pellets for samples shown in Fig. 6 and Supplementary Fig. 6 were lysed in 120 µL lysis buffer (50 mM Tris pH 8.0, 150 mM NaCl, 1% (v/v) IGEPAL, 0.5% (w/v) Na-deoxycholate, 0.1% (w/v) SDS) supplemented with 1x EDTA-free inhibitor protease cocktail (cOmplete, Roche) for 15 min at 4 °C. 0.2 µL Turbonuclease (Sigma Aldrich) and 5 mM MgCl2 were then added and lysates were incubated for 15 min at 4 °C. Cell debris was separated by centrifugation at 20,817 ×g for 15 min at 4 °C.\n(§4) Protein concentrations of cell lysates were measured using the Pierce BCA Protein Assay (Thermo Fisher Scientific) or the Quick Start Bradford Protein Assay (Bio-Rad), following the manufacturers’ protocols. Measurements were recorded on Tecan Spark or Tecan Infinite M200 plate readers. Lysates were kept on ice throughout the entire process.\n(§5) To separate proteins via SDS-PAGE, 10-20 µg of protein in lysis buffer was diluted with SDS-PAGE loading buffer (for most blots containing DTT or 2-mercaptoethanol) and denatured at 95 °C for 5 min. Protein separation was conducted at 95–110 V using the Mini-PROTEAN electrophoresis system (Bio-Rad). Proteins were then transferred to PVDF or nitrocellulose membranes using the Trans-Blot Turbo system (Bio-Rad) with the Trans-Blot Turbo RTA Kit for PVDF membranes. Prior to transfer, membranes were activated by soaking in 100% ethanol (for PVDF) or distilled water (for nitrocellulose) and proteins were transferred using the Mixed MW or the standard (1.0 A, 25 V, 30 min) protocol.\n(§6) After transfer, membranes were blocked in 5% (w/v) milk/TBS-T for 1 h and then washed three times for 10 min with TBS-T. They were incubated overnight at 4 °C with the primary antibody in 5% (w/v) milk/TBS-T or 1% (w/v) BSA/TBS-T. Membranes were then washed three times for 10 min with TBS-T and incubated with horseradish peroxidase (HRP)-conjugated secondary antibodies in a solution of 5% (w/v) BSA/TBS-T or 1% (w/v) milk/TBS-T for 1 h at room temperature. PBS-T was used for blots shown in Fig. 6 and Supplementary Fig. 6.\n(§7) Membranes were incubated with Clarity Western ECL substrate (Bio-Rad) for PDAC samples or Pierce ECL Western Blotting-Substrate (Thermo Fisher Scientific) for melanoma. Chemiluminescent signals were detected with a ChemiDoc Imaging System (Bio-Rad) for PDAC samples or with a ECL Chemostar Imager (Intas Science Imaging) for melanoma samples.\n(§8) Densitometric quantification of band intensities for Fig. 2c, d was performed using the ImageJ software."}, "HiBiT-USP7": {"molecular_target": "HiBiT-USP7 (Homo sapiens, UniProt Q93009)", "sequence (Q93009 whole entry, the tested form may be a part)": "as the sequence (Q93009 whole entry) above", "assay": "HiBiT USP7 degradation assay, MV4-11 cells", "settings": "for DC50: MV4-11 HiBiT-USP7, 24 h", "procedure": "HiBiT-USP7 construct was cloned by extraction of USP7 fragment from plasmid pQHA-USP7 WT puroR (Addgene #46753) using appropriate restriction sites. The USP7 fragment was then ligated into the pRRL-PGK-HiBiT entry vector to generate the plasmid.\nLentiviral infection was used to generate stable a MV4-11 HiBiT cell line. Lentivirus was produced using plasmids psPAX2, pMD2.G, and HiBiT-USP7 plasmid in HEK293 cells. MV4-11 cells were infected with filtered virus supernatant and selected after 48 h of infection for the generation of the stable MV4-11^HiBiT-USP7 cell line.\nThe assay was performed as described previously. Briefly, MV4-11^HiBiT-USP7 cells were seeded and treated with compounds for the indicated time. Nano-Glo HiBiT Lytic Detection System (Promega) was used for the assay and luminescence was measured on a Tecan Spark microplate reader (Tecan). DC50 values were calculated using the sigmoidal dose-response (four parameters) equation in GraphPad Prism and are given as the concentration where 50% of the total signal was remaining. Dmax values are given as the maximum degradation observed at any concentration."}, "USP7 [2]": {"molecular_target": "T1, USP7", "assay": "USP7 degradation, Western blot densitometry, Panc89 cells", "settings": "for DC50: read-out: DC50 (half-maximal degradation concentration); for USP7 degradation (in words): 24 h", "procedure": "as §1, §2, §3, §4, §5, §6, §7, §8"}, "[3]": {"settings": "Ma-Mel-47, 24 h, Western blot densitometry"}, "[4]": {"settings": "MV4-11, MV4-11 HiBiT-USP7, 24 h"}, "[5]": {"settings": "Panc89, 24 h, Western blot densitometry"}},
  "note": "Values joined by “and” are separate entries in the source; they are usually repeats but may differ in a detail not shown here. Equal values may be shown once.",
  "data": [
    {"molecule": "Cc1ncsc1-c1ccc([C@H](C)NC(=O)[C@@H]2C[C@@H](O)CN2C(=O)[C@@H](NC(=O)C23C4C5C2C2C3C4C52C(=O)N2CCC(C3CCN(c4ccc(-n5ncc6c(=O)n(CC7(O)CCN(C(=O)C[C@@H](C)c8ccccc8)CC7)cnc65)cc4)CC3)CC2)C(C)(C)C)cc1", "note": "(some centres unmarked) [NK266]", "values": [
      {"measurement": "Time after which USP7 degradation was observed", "setting": "USP7 [1]; Ma-Mel-47, 1 µM", "value": 16, "unit": "h"},
      {"measurement": "USP7 degradation (in words)", "setting": "USP7 [1]; Ma-Mel-47, 5 µM, Western blot", "value": "higher potency"},
      {"measurement": "Dmax", "setting": "USP7 [1]; [3]", "value": 94, "unit": "%"},
      {"measurement": "DC50", "setting": "USP7 [1]; [3]", "value": 29, "unit": "nM"},
      {"measurement": "Dmax", "setting": "HiBiT-USP7; MV4-11, MV4-11 HiBiT-USP7, 6 h", "value": 74, "unit": "%"},
      {"measurement": "Dmax", "setting": "HiBiT-USP7; [4]", "value": "90 to 92", "unit": "%"},
      {"measurement": "DC50", "setting": "HiBiT-USP7", "value": 24, "unit": "nM"},
      {"measurement": "Time after which USP7 degradation was observed", "setting": "USP7 [2]; Panc89, 1 µM", "value": "16 h and 16 to 24 h"},
      {"measurement": "DC50", "setting": "USP7 [2]; [5]", "value": 49, "unit": "nM"},
      {"measurement": "USP7 degradation (in words)", "setting": "USP7 [2]; Panc89, increasing concentrations", "value": "near complete degradation of USP7"}
    ]},
    {"molecule": "Cc1ncsc1-c1ccc(CNC(=O)[C@@H]2C[C@H](O)CN2C(=O)[C@@H](NC(=O)[C@H]2CC[C@H](C(=O)N3CCN(c4ccc(-n5ncc6c(=O)n(CC7(O)CCN(C(=O)C[C@@H](C)c8ccccc8)CC7)cnc65)cc4)CC3)CC2)C(C)(C)C)cc1", "note": "[NK245]", "values": [
      {"measurement": "USP7 levels in time course (in words)", "setting": "USP7 [1]; Ma-Mel-47, 1 µM", "value": "did not reduce protein levels"},
      {"measurement": "HiBiT-USP7 levels (in words)", "setting": "HiBiT-USP7; MV4-11 HiBiT-USP7, 6 h and 24 h", "value": "partial reduction of USP7 levels"},
      {"measurement": "USP7 levels in time course (in words)", "setting": "USP7 [2]; Panc89, 1 µM, over 24 h", "value": "did not reduce protein levels"}
    ]},
    {"molecule": "Cc1ncsc1-c1ccc([C@H](C)NC(=O)[C@@H]2C[C@@H](O)CN2C(=O)[C@@H](NC(=O)[C@H]2CC[C@H](C(=O)N3CCN(c4ccc(-n5ncc6c(=O)n(CC7(O)CCN(C(=O)C[C@@H](C)c8ccccc8)CC7)cnc65)cc4)CC3)CC2)C(C)(C)C)cc1", "note": "[NK250]", "values": [
      {"measurement": "USP7 degradation (in words)", "setting": "USP7 [1]; Ma-Mel-47, 1 µM", "value": "not able to fully degrade USP7"},
      {"measurement": "USP7 levels in time course (in words)", "setting": "USP7 [1]; Ma-Mel-47, 1 µM", "value": "weak effects"},
      {"measurement": "DC50", "setting": "USP7 [1]; [3]", "value": "154 ± 38", "unit": "nM"},
      {"measurement": "Dmax", "setting": "HiBiT-USP7; MV4-11, MV4-11 HiBiT-USP7, 6 h", "value": 87, "unit": "%"},
      {"measurement": "Dmax", "setting": "HiBiT-USP7; [4]", "value": "90 to 92", "unit": "%"},
      {"measurement": "DC50", "setting": "HiBiT-USP7", "value": 4, "unit": "nM"},
      {"measurement": "USP7 degradation (in words)", "setting": "USP7 [2]; Panc89, 5 µM, Western blot", "value": "complete degradation"},
      {"measurement": "Concentration of near complete degradation of USP7", "setting": "USP7 [2]; Panc89, 24 h", "value": "~100", "unit": "nM"},
      {"measurement": "Dmax", "setting": "USP7 [2]; [5]", "value": 98, "unit": "%"},
      {"measurement": "DC50", "setting": "USP7 [2]; [5]", "value": 8, "unit": "nM"}
    ]}
  ]
}
